Assay results from US7378397B2 (The Provost, Fellows and Scholars of the College of the …, priority 2000, dated 2008).
Converted amounts (≈) assume the structure as drawn. Where a SMILES comes first, the peptide text is derived from it. [ ]: non-standard residue; d: D form. The star is where a group is joined. AMC = Cc1cc(=O)oc2cc(N*)ccc12; pGlu = O=C1CC[C@@H](C(=O)O)N1

Tests used:
[1] = biological target: T1, TRH-DE (Sus scrofa, UniProt A0A287AP33); test: HPLC assay of peptide hydrolysis by TRH-DE (Glp production); type: biochemical, porcine; conditions: for hydrolysis by TRH-DE (release of Glp): 1 mM peptide incubated with TRH-DE 18 h at 37° C., HPLC; for Rate of hydrolysis: peptide 1 mM, 37° C., Glp production by HPLC, mean±S.D.
T1 construct: The inventor purified TRH-DE from porcine brain according to purification procedures previously published by Dr. K. Bauer; from tissue; host or cells: porcine brain (TRH-DE); bovine kidney (DPP-IV, gift from Dr. C. H. Williams)
Experimental: (§1) The inventor purified TRH-DE from porcine brain according to purification procedures previously published by Dr. K. Bauer, (Max-Planck-Institut, Hannover, Germany) (1). TRH-DE was purified almost 20,000 fold. […] Dipeptidyl peptidase IV (DPP-IV) (EC 3.4.14.5), purified from bovine kidney (7.7 mg ml^−1, specific activity of 17.5 U mg^−1 with Gly-ProAMC as substrate), was obtained as a gilt from Dr. C. H. Williams (Queen's University Belfast, U.K). (DPP-IV was used as the coupling enzyme used in the fluorometric assays).
(§2) One unit (U) of enzyme activity was defined as that amount catalysing the formation of one μmol of product in one minute under the standard conditions employed. All incubations in the assays described below were carried out in 20 mM potassium phosphate buffer, pH 7.5, at 37° C.
Kinetic analysis of the peptide library using HPLC—The ability of each peptide in the library to act as a TRH-DE substrate was assessed using HPLC. As an initial screen, 1 mM peptide was incubated with 0.8 μg TRH-DE in a total volume of 1 ml for 18 h at 37° C. Control samples were included in which peptide (1 mM) or Glp (0.2 mM-0.8 mM) were incubated under identical conditions in the absence of TRH-DE. TRH-DE activity was terminated by the addition of TFA (0.15% v/v) and samples were then analysed using HPLC as described previously (24). Products resulting from TRH-DE hydrolysis could be separated on a C-18 reverse-phase column (Hypersil, UK) using a linear gradient of 0-70% acetonitrile in 0.08% (v/v) TFA. The concentration of Glp formed by the action of TRH-DE on the peptide library was measured by UV absorbance at 206 nm with a quantitative detection limit of 0.1 mM for a 40 μl injection volume, employing a signal to noise ratio of 10. Following the incubation of each peptide with TRH-DE, evidence of Glp in the sample was taken to indicate that the peptide was a TRH-DE substrate.
The rates of hydrolysis for each of those peptides identified as substrates were then compared by measuring Gip production using microassays with shorter incubation times. In these assays peptide (1 mM) was incubated at 37° C. in a total volume of 100 μl. 0.8-3.2 μg TRH-DE and incubations times of 5 min to 18 h were used routinely. Measurements were made in triplicate. The rate of TRH-OH hydrolysis was also measured by this method.

[2] = biological target: T1, TRH-DE; test: continuous coupled fluorometric TRH-DE assay (TRHAMC substrate, DPP-IV coupling enzyme); type: biochemical, porcine; conditions: for inhibition at 1000 µM: peptide 1 mM
Experimental: as §1, §2
Kinetic analysis of peptides that are not hydrolysed by TRH-DE. A recently-developed continuous coupled fluorometric assay (23) was used to investigate the ability of those library peptides that were not hydrolysed by TRH-DE to inhibit TRHAMC degradation by TRH-DE. In this assay, TRHAMC is the substrate and dipeptidyl peptidase IV (DPP-IV) (EC 3.4.14.5) is the coupling enzyme. The reaction sequence is:
The reaction was monitored continuously by measuring the increase in AMC fluorescence. A linear progress curve with no discernible lag period was observed when the reaction was monitored over a period of 10 minutes. Nevertheless, data sampling was not commenced until 100 s from the start of the reaction to ensure measurements were taken after a steady state had been reached (see Ref. 23).
In a preliminary experiment, the peptides were screened for their ability to inhibit TRH-DE activity. The initial rate of TRHAMC hydrolysis by TRH-DE was measured by incubating 5 μM TRHAMC with 1.23 μg DPP-IV and 0.32 μg TRH-DE, both in the absence and presence of each library peptide (1 mM final concentration) under standard assay conditions (23). In each case the percentage inhibition (i%) was calculated using the equation i%=100(1-vi/vo), where vi and vo are the initial velocities in the presence and absence of peptide, respectively.
Since these peptides were poor inhibitors they were not examined further. The Ki values for the remainder of the peptides were determined by measuring their effects on TRHAMC degradation by TRH-DE using the continuous assay. Data were collected in duplicate at five different substrate concentrations and at least three different concentrations of each peptide.
Reversibility and time dependence of the inhibition produced by Glp-Gln-ProNH2, Glp-Asn-ProNH2 and Glp-Asn-ProAMC were examined by initially preincubating TRH-DE with each peptide at 37° C. for various periods up to 75 min. To investigate time dependence, the enzyme-peptide solution was subsequently added to the reaction mixture containing TRHAMC, DPP-IV, buffer and peptide, and TRH-DE activity was measured using the continuous assay. The final concentration of Glp-Gln-ProNH2, Glp-Asn-ProNH2 and Glp-Asn-ProAMC used was 400, 160 and 1 μM, respectively. […] TRH-DE activity was not affected by pre-incubation at 37° C.
Fluorescence measurements were made using a Perkin Elmer LS 50B Luminescence Spectrometer fitted with a thernostated cell holder. Wavelengths for excitation and emission were set at 370 nm and 440 nm, respectively, with slit widths of 10 nm and 5 nm, respectively.

[3] = tested on: TRH-DE; conditions: published observation (21); cited from earlier work
[4] = biological target: T1, TRH-DE; conditions: From Ref. 23 (inventor's publication); cited from earlier work
[5] = physchem
[6] = tested on: Male Wistar rats; test: behavioural effects (WDS, locomotion) after i.c.v. administration; type: in vivo, rat; conditions: 5 μg alone, 30 min
Experimental: Methods: Behavioural studies were conducted using experimentally naïve Male Wistar rats (200-250 g) maintained in a temperature controlled (21° C.), artificially-lighted (12 hr light cycle) room with free access to food and water. Behavioural effects of […] following intra-cerebroventricular (i.c.v.) administration: Animals were implanted with guide cannula aimed at the lateral cerebral ventricles (AP-0.92 mm, ML-1.5 mm, DV-2.6 mm relative to Bregma, atlas of Paxinos & Watson) under halothane anaesthesia. One week following surgery placement of the cannulae was assessed by the ability of a microinjection of angiotensin II (200 ng in 1 μl) to induce drinking behaviour. […] They were then administered either vehicle (1 μl 0.9% saline) or […] (5 μg in 1 μl) followed 1 minute later by vehicle (1 μl 0.9% saline) or TRH (5 μg in 1 μl). One minute after the last i.c.v. injection animals were placed back into the perspex cage and their behaviour monitored by a computer automated tracking system for 30 minutes (Ethovision Pro, Noldus) to provide measures of locomotor activity. Animals were videotaped for subsequent blind analysis of WDS behaviour by a trained observer. A threshold dose of 5 μg TRH was chosen for i.c.v. administration so that if […] enhanced responses to TRH, this would be clearly visible. The statistical significance of differences between behavioural effects of treatments was determined using the Student's t-test or ANOVA, followed by a post-ANOVA test, as indicated. Radioligand binding data were analysed using non-linear curve fitting software (Prism, Graph Pad Software Inc.). IC50 values calculated from competition experiments were converted to Ki values using the Cheng-Prusoff (41) equation Ki=IC50/(1+L/Kd), where L=ligand concentration and Kd=the apparent dissociation constant for [^3[…].

[7] = biological target: TRH receptors in rat cortical membranes; test: radioligand binding to ^3H-3MeHis-TRH-labelled receptors in rat cortex; conditions: competition with 6-8 nM ^3H-3MeHis-TRH, Cheng-Prusoff
Experimental: Evaluation of the ability of TRH, Glp-Asn-ProNH2, and Glp-Asn-ProAMC to bind to ^3H-3MeHis-TRH-labelled receptors in rat cortex: Radioligand binding assays were conducted to investigate the possibility that the two TRH-DE inhibitors might exert their effects by acting independently at TRH receptors in the brain.
Cortex tissue from male Sprague-Dawley rats (250 g) was dissected out, weighed and homogenised in 30 volumes of ice-cold sodium phosphate buffer (0.02 M, pH 7.5). The homogenates were centrifuged at 30,000 g at 4° C. for 30 min. The supernatant was discarded and the pellet was resuspended at 100 mg wet wt/ml in buffer containing 177 μM bacitracin. […] Non-specific binding was defined in the presence of 10 μM TRH.
The statistical significance of differences between behavioural effects of treatments was determined using the Student's t-test or ANOVA, followed by a post-ANOVA test, as indicated. Radioligand binding data were analysed using non-linear curve fitting software (Prism, Graph Pad Software Inc.). IC50 values calculated from competition experiments were converted to Ki values using the Cheng-Prusoff (41) equation Ki=IC50/(1+L/Kd), where L=ligand concentration and Kd=the apparent dissociation constant for [^3H]-[3-MeHis]TRH.

[8] = estimated from <20% inhibition at 1 mM peptide with the competitive inhibition relationship

T1 sequence (A0A287AP33 1-1066): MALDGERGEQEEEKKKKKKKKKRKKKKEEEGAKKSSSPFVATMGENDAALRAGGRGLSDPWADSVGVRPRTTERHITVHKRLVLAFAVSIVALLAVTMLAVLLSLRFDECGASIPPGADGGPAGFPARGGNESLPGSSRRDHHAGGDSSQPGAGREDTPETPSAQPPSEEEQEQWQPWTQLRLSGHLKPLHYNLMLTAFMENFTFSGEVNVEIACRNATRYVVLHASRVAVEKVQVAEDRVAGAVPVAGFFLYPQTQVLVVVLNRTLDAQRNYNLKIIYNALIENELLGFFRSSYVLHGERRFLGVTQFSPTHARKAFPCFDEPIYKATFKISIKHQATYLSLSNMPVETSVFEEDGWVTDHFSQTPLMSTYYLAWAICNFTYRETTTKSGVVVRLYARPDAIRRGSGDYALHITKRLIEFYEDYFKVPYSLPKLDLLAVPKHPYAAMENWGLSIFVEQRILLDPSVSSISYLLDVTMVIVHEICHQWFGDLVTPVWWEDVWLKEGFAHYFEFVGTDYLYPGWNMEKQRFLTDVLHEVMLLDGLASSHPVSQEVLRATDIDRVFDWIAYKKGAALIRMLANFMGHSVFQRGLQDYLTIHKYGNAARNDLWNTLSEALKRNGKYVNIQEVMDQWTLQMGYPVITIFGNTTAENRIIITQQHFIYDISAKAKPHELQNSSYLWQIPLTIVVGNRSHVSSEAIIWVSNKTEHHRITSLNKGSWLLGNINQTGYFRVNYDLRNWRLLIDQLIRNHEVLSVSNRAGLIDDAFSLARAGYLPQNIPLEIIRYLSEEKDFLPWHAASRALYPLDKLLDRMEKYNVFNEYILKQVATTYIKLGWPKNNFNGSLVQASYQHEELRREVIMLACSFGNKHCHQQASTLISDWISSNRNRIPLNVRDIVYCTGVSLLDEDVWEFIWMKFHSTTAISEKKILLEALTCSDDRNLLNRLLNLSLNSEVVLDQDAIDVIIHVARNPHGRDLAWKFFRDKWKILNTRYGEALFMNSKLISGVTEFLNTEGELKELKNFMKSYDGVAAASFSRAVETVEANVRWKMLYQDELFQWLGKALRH

In the case of `NC(=O)[C@@H]1CCCN1C(=O)[C@H](CCC(=O)O)NC(=O)[C@@H]1CCC(=O)N1` [Glp-Glu-ProNH2] ([pGlu]-Glu-Pro-NH2), the “hydrolysis by TRH-DE (release of Glp)” value [1] is reported as “No detectable Glp”, the Ki [2, 8] is reported as greater than 1000 µM and the inhibition at 1000 µM ([2]; 5 μM TRHAMC substrate) is reported as 17%. For the same molecule, the “substrate for TRH-DE” value [3] was “is not”.
In the case of Glp-His-ProOH, the Vmax ([1]; estimated from HPLC rates of hydrolysis using Vmax=vo{(Km+[S])/[S]}) is given as 4.43 ± 0.24 (3) U mg^−1, the Rate of hydrolysis [1] is given as 3.38 ± 0.18 (3) U mg^−1 and the Km [4] is given as 311 µM.
With `Cc1cc(=O)oc2cc(NC(=O)[C@@H]3CCCN3C(=O)[C@H](CC(N)=O)NC(=O)[C@@H]3CCC(=O)N3)ccc12` [Glp-Asn-ProAMC, Glp-Asn-Pro-7amido-4-methyl coumarin] ([pGlu]-Asn-Pro-{AMC}) the solubility [5] was 1000 µg/mL (≈ 2010 µM), the “number of WDS compared with vehicle” value [6] was “Neither TRH nor Glp-Asn-ProAMC alone produced a significantly greater number of WDS than vehicle” and the pKi [7] was 4.32±0.24. The Ki ([2]; calculated from percent inhibition measured in duplicate at 5 μM substrate) was 0.41 µM, the “mode of inhibition of TRH-DE” value ([2]; continuous assay, Lineweaver-Burk plot) was “simple competitive inhibitors” and the Ki ([2]; non-linear regression, five TRHAMC concentrations and at least three peptide concentrations, mean±S.D. (n=3)) was 0.97 ± 0.08 µM. The inhibition at 1 µM ([2]; peptide 1 μM, 5 μM TRHAMC substrate) was 50% and the “reversibility and time dependence of inhibition” value ([2]; preincubation with TRH-DE up to 75 min at 37° C., Glp-Gln-ProNH2 400, Glp-Asn-ProNH2 160, Glp-Asn-ProAMC 1 μM) was “fully reversible and not time-dependent”.
In the case of `NC(=O)[C@@H]1CCCN1C(=O)[C@H](Cc1ccccc1)NC(=O)[C@@H]1CCC(=O)N1` [Glp-Phe-ProNH2] ([pGlu]-Phe-Pro-NH2), the Rate of hydrolysis [1] is listed as 1.56 ± 0.13 (5) U mg^−1 and the “substrate for TRH-DE” value [3] is listed as “is also a substrate for TRH-DE”.
For `NC(=O)[C@@H]1CCCN1C(=O)CNC(=O)[C@@H]1CCC(=O)N1` [Glp-Gly-ProNH2] ([pGlu]-Gly-Pro-NH2), the “hydrolysis by TRH-DE (release of Glp)” value [1] was “No detectable Glp”, the Ki [2, 8] was greater than 1000 µM and the inhibition at 1000 µM ([2]; 5 μM TRHAMC substrate) was 8%.
For `NC(=O)C[C@@H](NC(=O)[C@@H]1CCC(=O)N1)C(=O)N1CCC[C@H]1C(N)=O` [Glp-D-Asn-ProNH2] ([pGlu]-[dN]-Pro-NH2), the “hydrolysis by TRH-DE (release of Glp)” value [1] was “No detectable Glp”, the Ki [2, 8] was greater than 1000 µM and the inhibition at 1000 µM ([2]; 5 μM TRHAMC substrate) was 2%.
